Measurements as given in the NIST ThermoML archive (doi:10.1016/j.jct.2016.03.026).
Numbers after ± are expanded uncertainties.

Assay: xn = mol fraction of the nth substance listed
Details: Fluid (supercritical or subcritical phases), x1 = 0.97; for mass density: Vibrating tube method; for speed of sound: 293.13 K, Frequency=5 MHz, Pulse-echo method

O=C=O [carbon dioxide] + CO
Details | mass density [kg/m3]
283.15 K, 19575 kPa | 977.29 ± 0.8
283.15 K, 19600 kPa | 977.43 ± 0.8
283.15 K, 19625 kPa | 977.51 ± 0.8
283.15 K, 19650 kPa | 977.66 ± 0.8
283.15 K, 19675 kPa | 977.74 ± 0.8
283.15 K, 19700 kPa | 977.89 ± 0.8
283.15 K, 19725 kPa | 977.97 ± 0.8
283.15 K, 19750 kPa | 978.07 ± 0.8
283.15 K, 19775 kPa | 978.19 ± 0.8
283.15 K, 19800 kPa | 978.31 ± 0.8
283.15 K, 19825 kPa | 978.42 ± 0.8
283.15 K, 19850 kPa | 978.49 ± 0.8
283.15 K, 19875 kPa | 978.64 ± 0.8
283.15 K, 19900 kPa | 978.72 ± 0.8
283.15 K, 19925 kPa | 978.84 ± 0.8
283.15 K, 19950 kPa | 978.96 ± 0.8
283.15 K, 19975 kPa | 979.04 ± 0.8
283.15 K, 20000 kPa | 979.19 ± 0.8
293.15 K, 6500 kPa | 813.14 ± 0.81
293.15 K, 6525 kPa | 813.39 ± 0.81
293.15 K, 6550 kPa | 813.83 ± 0.81
293.15 K, 6575 kPa | 814.36 ± 0.81
293.15 K, 6600 kPa | 814.85 ± 0.81
293.15 K, 6625 kPa | 815.37 ± 0.81
293.15 K, 6650 kPa | 815.85 ± 0.81
293.15 K, 6675 kPa | 816.32 ± 0.81
293.15 K, 6700 kPa | 816.75 ± 0.81
293.15 K, 6725 kPa | 817.24 ± 0.81
293.15 K, 6750 kPa | 817.7 ± 0.81
293.15 K, 6775 kPa | 818.19 ± 0.81
293.15 K, 6800 kPa | 818.69 ± 0.81
293.15 K, 6825 kPa | 819.09 ± 0.81
293.15 K, 6850 kPa | 819.56 ± 0.81
293.15 K, 6875 kPa | 820.02 ± 0.81
293.15 K, 6900 kPa | 820.51 ± 0.81
293.15 K, 6925 kPa | 821 ± 0.81
293.15 K, 6950 kPa | 821.45 ± 0.81
293.15 K, 6975 kPa | 821.88 ± 0.81
293.15 K, 7000 kPa | 822.38 ± 0.81
293.15 K, 7025 kPa | 822.78 ± 0.81
293.15 K, 7050 kPa | 823.25 ± 0.81
293.15 K, 7075 kPa | 823.68 ± 0.81
293.15 K, 7100 kPa | 824.12 ± 0.81
293.15 K, 7125 kPa | 824.56 ± 0.81
293.15 K, 7150 kPa | 824.97 ± 0.81
293.15 K, 7175 kPa | 825.4 ± 0.81
293.15 K, 7200 kPa | 825.75 ± 0.81
293.15 K, 7225 kPa | 826.24 ± 0.81
293.15 K, 7250 kPa | 826.63 ± 0.81
293.15 K, 7275 kPa | 827.05 ± 0.81
293.15 K, 7300 kPa | 827.52 ± 0.81
293.15 K, 7325 kPa | 827.94 ± 0.81
293.15 K, 7350 kPa | 828.35 ± 0.81
293.15 K, 7375 kPa | 828.75 ± 0.81
293.15 K, 7400 kPa | 829.18 ± 0.81
293.15 K, 7425 kPa | 829.57 ± 0.81
293.15 K, 7450 kPa | 829.96 ± 0.81
293.15 K, 7475 kPa | 830.36 ± 0.81
293.15 K, 7500 kPa | 830.75 ± 0.81
293.15 K, 7525 kPa | 831.18 ± 0.81
293.15 K, 7550 kPa | 831.58 ± 0.81
293.15 K, 7575 kPa | 832.01 ± 0.81
293.15 K, 7600 kPa | 832.39 ± 0.81
293.15 K, 7625 kPa | 832.79 ± 0.81
293.15 K, 7650 kPa | 833.16 ± 0.81
293.15 K, 7675 kPa | 833.55 ± 0.81
293.15 K, 7700 kPa | 833.94 ± 0.81
293.15 K, 7725 kPa | 834.35 ± 0.81
293.15 K, 7750 kPa | 834.76 ± 0.81
293.15 K, 7775 kPa | 835.15 ± 0.81
293.15 K, 7800 kPa | 835.53 ± 0.81
293.15 K, 7825 kPa | 835.97 ± 0.81
293.15 K, 7850 kPa | 836.36 ± 0.81
293.15 K, 7875 kPa | 836.75 ± 0.81
293.15 K, 7900 kPa | 837.14 ± 0.81
293.15 K, 7925 kPa | 837.51 ± 0.81
293.15 K, 7950 kPa | 837.87 ± 0.81
293.15 K, 7975 kPa | 838.26 ± 0.81
293.15 K, 8000 kPa | 838.63 ± 0.81
293.15 K, 8025 kPa | 838.99 ± 0.81
293.15 K, 8050 kPa | 839.37 ± 0.81
293.15 K, 8075 kPa | 839.71 ± 0.81
293.15 K, 8100 kPa | 840.15 ± 0.81
293.15 K, 8125 kPa | 840.47 ± 0.81
293.15 K, 8150 kPa | 840.87 ± 0.81
293.15 K, 8175 kPa | 841.23 ± 0.81
293.15 K, 8200 kPa | 841.62 ± 0.81
293.15 K, 8225 kPa | 841.97 ± 0.81
293.15 K, 8250 kPa | 842.39 ± 0.81
293.15 K, 8275 kPa | 842.74 ± 0.81
293.15 K, 8300 kPa | 843.12 ± 0.81
293.15 K, 8325 kPa | 843.46 ± 0.81
293.15 K, 8350 kPa | 843.86 ± 0.81
293.15 K, 8375 kPa | 844.16 ± 0.81
293.15 K, 8400 kPa | 844.56 ± 0.81
293.15 K, 8425 kPa | 844.93 ± 0.81
293.15 K, 8450 kPa | 845.3 ± 0.81
293.15 K, 8475 kPa | 845.64 ± 0.81
293.15 K, 8500 kPa | 845.98 ± 0.81
293.15 K, 8525 kPa | 846.37 ± 0.81
293.15 K, 8550 kPa | 846.75 ± 0.81
293.15 K, 8575 kPa | 847.1 ± 0.81

Details | speed of sound [m/s]
20010 kPa | 624.7 ± 0.9
24930 kPa | 674.5 ± 1
29990 kPa | 718.7 ± 1
34940 kPa | 755.3 ± 1
39990 kPa | 791.4 ± 1.1
44940 kPa | 822.9 ± 1.1
49970 kPa | 852.5 ± 1.1
54900 kPa | 879.8 ± 1.2
59940 kPa | 906 ± 1.2
64950 kPa | 930.5 ± 1.2
69950 kPa | 953.8 ± 1.2
74980 kPa | 976 ± 1.3
80020 kPa | 997.6 ± 1.3
90010 kPa | 1037.3 ± 1.3
100010 kPa | 1074.3 ± 1.4
109950 kPa | 1108.7 ± 1.4
120040 kPa | 1141.7 ± 1.5
140050 kPa | 1201.9 ± 1.5
160040 kPa | 1256.5 ± 1.6
178780 kPa | 1303.9 ± 1.7
